Patent US6589993B2, “Treating vancomycin-intermediates and multiresistant staphylococci infection with thiamphenicol or a salt thereof” (Zambon Group S.p.A., priority 2000, dated 2003)
In brackets after ≈: the same amount, converted by molar mass. Like-named read-outs stand apart in the source and are kept apart here.

Tests used:
[1] = test system: S. aureus vancomycin-intermediates (VISA) Met-R strains; assay: MIC determination (NCCLS broth microdilution), VISA Met-R strains; format: cell-based, Staphylococcus aureus; conditions: for MIC: antibiotype Oxa, Cip, Clin, Ery
Method: (§1) The MICs of thiamphenicol and of other antibiotics was obtained by using the method proposed by NCCLS (National Committee for Clinical Laboratory Standards, 1999).
(§2) Various antibiotic concentrations were added to bacteria in exponental growth (final inoculum 5×10^5 […]); dilution in Mb (cation-supplemented Mueller-Hinton broth) and distribution on a microplate by using an automatic diluting machine Biomek 1000 (Beckman, USA). MHb charged with 2% NaCl was used to test the methicillin activity.
(§3) The antibiotic concentration which hinders a visible growth after 18-24 hours of incubation at 37° C., was registered as MIC.
(§4) S. aureus ATCC 29213 was used as quality control strain.

[2] = test system: S. aureus Met-R multiresistant strains; assay: MIC determination (NCCLS broth microdilution), methicillin-resistant multiresistant S. aureus strains; format: cell-based, Staphylococcus aureus; conditions: for % susceptible at breakpoint: NCCLS (1999) breakpoints; for MIC / MIC50 / MIC90: Staphylococcus aureus; for MIC: antibiotype Oxa, Ery, read-out: MIC; for MIC50: read-out: MIC 50%; for MIC90: read-out: MIC 90%
Method: as §1, §2, §3, §4

[3] = Staphylococcus aureus, Strain 51 VISA, read-out: MIC
[4] = Strain 30, Cip, Clin, Gm, SXT, Dox
[5] = Strain 32, Cip, Clin, Gm, SXT, Rif
[6] = Strain 44, Cip, Clin, Gm, Rif, Dox
[7] = Strain 45, Cip, Clin, Gm, Rif, Dox, Fos
[8] = Strain 50, Cip, Clin, Gm, Rif, Dox

O=C(N[C@H](CO)[C@H](O)c1ccc([N+](=O)[O-])cc1)C(Cl)Cl [Cloramphenicol, cloramphenicol]
MIC [1, 3]: 8 mg/L (≈ 24.8 µM) | MIC ([1]; Strain 52 VISA): 8 mg/L (≈ 24.8 µM) | MIC Range ([1]; VISA (2) Met-R): 8 mg/L (≈ 24.8 µM) | % susceptible at breakpoint ([1]; VISA (2) Met-R, NCCLS (1999) breakpoints): 100% | MIC Range ([2]; S. aureus (50) Met-R): 4 to 64 mg/L | % susceptible at breakpoint ([2]; S. aureus (50) Met-R): 66% | MIC ([2]; Strain 1, Cip, Clin, Gm): 4 mg/L (≈ 12.4 µM) | MIC ([2]; Strain 2, Clin, Fos): 64 mg/L (≈ 198 µM) | MIC ([2]; Strain 3, Cip, Clin, Gm): 4 mg/L (≈ 12.4 µM) | MIC ([2]; Strain 4, Cip, Gm): 4 mg/L (≈ 12.4 µM) | MIC ([2]; Strain 5, Cip, Clin): 64 mg/L (≈ 198 µM) | MIC ([2]; Strain 6, Clin, Gm): 64 mg/L (≈ 198 µM) | MIC ([2]; Strain 7, Cip, Gm): 8 mg/L (≈ 24.8 µM) | MIC ([2]; Strain 8, Cip, Clin): 64 mg/L (≈ 198 µM) | MIC ([2]; Strain 9, Cip, Clin, Gm): 8 mg/L (≈ 24.8 µM) | MIC ([2]; Strain 10, Cip, Clin, Gm): 4 mg/L (≈ 12.4 µM) | MIC ([2]; Strain 11, Clin, Rif): 64 mg/L (≈ 198 µM) | MIC ([2]; Strain 12, Cip, Clin): 64 mg/L (≈ 198 µM) | MIC ([2]; Strain 13, Cip, Clin): 8 mg/L (≈ 24.8 µM) | MIC ([2]; Strain 14, Clin, Cip): 8 mg/L (≈ 24.8 µM) | MIC ([2]; Strain 15, Cip, Clin, Gm): 8 mg/L (≈ 24.8 µM) | MIC ([2]; Strain 16, Cip, Clin): 8 mg/L (≈ 24.8 µM) | MIC ([2]; Strain 17, Cip, Clin): 8 mg/L (≈ 24.8 µM) | MIC ([2]; Strain 18, Cip, Clin, Gm): 64 mg/L (≈ 198 µM) | MIC ([2]; Strain 19, Cip, Clin, Gm): 8 mg/L (≈ 24.8 µM) | MIC ([2]; Strain 20, Cip, Clin, Gm): 64 mg/L (≈ 198 µM) | MIC ([2]; Strain 21, Cip, Clin, Gm): 64 mg/L (≈ 198 µM) | MIC ([2]; Strain 22, Cip, Clin): 8 mg/L (≈ 24.8 µM) | MIC ([2]; Strain 23, Cip, Clin, Gm): 64 mg/L (≈ 198 µM) | MIC ([2]; Strain 24, Cip, Clin, Gm): 64 mg/L (≈ 198 µM) | MIC ([2]; Strain 25, Cip, Clin, Gm): 8 mg/L (≈ 24.8 µM) | MIC ([2]; Strain 26, Cip, Clin, Fos, Gm): 8 mg/L (≈ 24.8 µM) | MIC ([2]; Strain 27, Cip, Clin, Fos, Gm): 8 mg/L (≈ 24.8 µM) | MIC ([2]; Strain 28, Cip, Clin, Gm): 64 mg/L (≈ 198 µM) | MIC ([2]; Strain 29, Clin, Fos): 8 mg/L (≈ 24.8 µM) | MIC [2, 4]: 8 mg/L (≈ 24.8 µM) | MIC ([2]; Strain 31, Cip, Clin, Fox, Gm): 8 mg/L (≈ 24.8 µM) | MIC [2, 5]: 64 mg/L (≈ 198 µM) | MIC ([2]; Strain 33, Cip, Clin, Gm): 64 mg/L (≈ 198 µM) | MIC ([2]; Strain 34, Cip, Clin, Gm): 64 mg/L (≈ 198 µM) | MIC ([2]; Strain 35, Cip, Clin, Gm): 8 mg/L (≈ 24.8 µM) | MIC ([2]; Strain 36, Cip, Clin, Fos): 8 mg/L (≈ 24.8 µM) | MIC ([2]; Strain 37, Cip, Clin, Fos, Gm): 8 mg/L (≈ 24.8 µM) | MIC ([2]; Strain 38, Cip, Gm): 8 mg/L (≈ 24.8 µM) | MIC ([2]; Strain 39, Cip, Clin, Fos, Gm): 8 mg/L (≈ 24.8 µM) | MIC ([2]; Strain 40, Cip, Clin, Gm): 8 mg/L (≈ 24.8 µM) | MIC ([2]; Strain 41, Cip, Clin): 8 mg/L (≈ 24.8 µM) | MIC ([2]; Strain 42, Cip, Clin, Gm): 8 mg/L (≈ 24.8 µM) | MIC ([2]; Strain 43, Cip, Clin, Gm): 8 mg/L (≈ 24.8 µM) | MIC [2, 6]: 8 mg/L (≈ 24.8 µM) | MIC [2, 7]: 8 mg/L (≈ 24.8 µM) | MIC ([2]; Strain 46, Clin, Fos): 8 mg/L (≈ 24.8 µM) | MIC ([2]; Strain 47, Cip, Clin, Gm): 8 mg/L (≈ 24.8 µM) | MIC ([2]; Strain 48, Cip, Clin): 64 mg/L (≈ 198 µM) | MIC ([2]; Strain 49, Cip, Gm): 8 mg/L (≈ 24.8 µM) | MIC [2, 8]: 64 mg/L (≈ 198 µM) | MIC50 ([2]; S. aureus (50) Met-R): 8 mg/L (≈ 24.8 µM) | MIC90 ([2]; S. aureus (50) Met-R): 64 mg/L (≈ 198 µM)

CCC[C@@H]1C[C@@H](C(=O)N[C@@H]([C@H]2O[C@H](SC)[C@H](O)[C@@H](O)[C@H]2O)[C@H](C)Cl)N(C)C1 [Clindamycin, clindamycin]
MIC [1, 3]: > 64 mg/L | MIC ([1]; Strain 52 VISA): >64 mg/L | MIC Range ([1]; VISA (2) Met-R): >64 mg/L | % susceptible at breakpoint ([2]; S. aureus (50) Met-R): 8% | MIC ([2]; Strain 1, Cip, Clin, Gm): > 64 mg/L | MIC ([2]; Strain 2, Clin, Fos): > 64 mg/L | MIC ([2]; Strain 3, Cip, Clin, Gm): > 64 mg/L | MIC ([2]; Strain 4, Cip, Gm): ≤ 0.06 mg/L | MIC ([2]; Strain 5, Cip, Clin): > 64 mg/L | MIC ([2]; Strain 6, Clin, Gm): > 64 mg/L | MIC ([2]; Strain 7, Cip, Gm): ≤ 0.06 mg/L | MIC ([2]; Strain 8, Cip, Clin): > 64 mg/L | MIC ([2]; Strain 9, Cip, Clin, Gm): > 64 mg/L | MIC ([2]; Strain 10, Cip, Clin, Gm): 64 mg/L (≈ 151 µM) | MIC ([2]; Strain 11, Clin, Rif): > 64 mg/L | MIC ([2]; Strain 12, Cip, Clin): > 64 mg/L | MIC ([2]; Strain 13, Cip, Clin): > 64 mg/L | MIC ([2]; Strain 14, Clin, Cip): > 64 mg/L | MIC ([2]; Strain 15, Cip, Clin, Gm): > 64 mg/L | MIC ([2]; Strain 16, Cip, Clin): > 64 mg/L | MIC ([2]; Strain 17, Cip, Clin): > 64 mg/L | MIC ([2]; Strain 18, Cip, Clin, Gm): > 64 mg/L | MIC ([2]; Strain 19, Cip, Clin, Gm): > 64 mg/L | MIC ([2]; Strain 20, Cip, Clin, Gm): 64 mg/L (≈ 151 µM) | MIC ([2]; Strain 21, Cip, Clin, Gm): > 64 mg/L | MIC ([2]; Strain 22, Cip, Clin): > 64 mg/L | MIC ([2]; Strain 23, Cip, Clin, Gm): > 64 mg/L | MIC ([2]; Strain 24, Cip, Clin, Gm): > 64 mg/L | MIC ([2]; Strain 25, Cip, Clin, Gm): 64 mg/L (≈ 151 µM) | MIC ([2]; Strain 26, Cip, Clin, Fos, Gm): 64 mg/L (≈ 151 µM) | MIC ([2]; Strain 27, Cip, Clin, Fos, Gm): 64 mg/L (≈ 151 µM) | MIC ([2]; Strain 28, Cip, Clin, Gm): > 64 mg/L | MIC ([2]; Strain 29, Clin, Fos): > 64 mg/L | MIC [2, 4]: 16 mg/L (≈ 37.6 µM) | MIC ([2]; Strain 31, Cip, Clin, Fox, Gm): > 64 mg/L | MIC [2, 5]: 64 mg/L (≈ 151 µM) | MIC ([2]; Strain 33, Cip, Clin, Gm): > 64 mg/L | MIC ([2]; Strain 34, Cip, Clin, Gm): > 64 mg/L | MIC ([2]; Strain 35, Cip, Clin, Gm): 64 mg/L (≈ 151 µM) | MIC ([2]; Strain 36, Cip, Clin, Fos): 64 mg/L (≈ 151 µM) | MIC ([2]; Strain 37, Cip, Clin, Fos, Gm): 64 mg/L (≈ 151 µM) | MIC ([2]; Strain 38, Cip, Gm): ≤ 0.06 mg/L | MIC ([2]; Strain 39, Cip, Clin, Fos, Gm): 64 mg/L (≈ 151 µM) | MIC ([2]; Strain 40, Cip, Clin, Gm): > 64 mg/L | MIC ([2]; Strain 41, Cip, Clin): 64 mg/L (≈ 151 µM) | MIC ([2]; Strain 42, Cip, Clin, Gm): 64 mg/L (≈ 151 µM) | MIC ([2]; Strain 43, Cip, Clin, Gm): 64 mg/L (≈ 151 µM) | MIC [2, 6]: 64 mg/L (≈ 151 µM) | MIC [2, 7]: 64 mg/L (≈ 151 µM) | MIC ([2]; Strain 46, Clin, Fos): 64 mg/L (≈ 151 µM) | MIC ([2]; Strain 47, Cip, Clin, Gm): 64 mg/L (≈ 151 µM) | MIC ([2]; Strain 48, Cip, Clin): 64 mg/L (≈ 151 µM) | MIC ([2]; Strain 49, Cip, Gm): ≤ 0.06 mg/L | MIC [2, 8]: > 64 mg/L | MIC50 ([2]; S. aureus (50) Met-R): > 64 mg/L | MIC90 ([2]; S. aureus (50) Met-R): > 64 mg/L
